Like-named read-outs stand apart in the source and are kept apart here.
What was measured:
THP-1 macrophages [1] = assay: triglyceride content in macrophages; format: cell-based, human; conditions: 10 µM, 48 h, vs. DMSO
Protocol: (§1) We used the human THP1 cell line, which is widely applied as a macrophage and foam cell model with similar properties as primary cells. […] For generating macrophages differentiation was induced by 10^−8 M Phorbol 12-myristate 13-acetate (PMA) (Sigma-Aldrich) for 48 h. Ligand treatment of macrophages was performed for further 24 h. To induce foam cell formation macrophages were treated for additional 48 h with 100 µg/mL modified human oxidized low density lipoprotein (oxLDL) obtained from Source BioScience (RP-048). Ligand treatment was performed simultaneously with foam cell formation. Cholesterol loading and treatment was controlled with Oil Red O staining (Alfa Aeser). To investigate ligand induced effects on cell proliferation of THP-1 macrophages CellTiter-Glo Luminescent Cell Viability Assay (Promega) was utilized.
(§2) THP-1 monocytes were plated out into 24-well plates (Nunc) at a density of 2×10^5 cells/well. After differentiation and treatment cells were lysed with 100 µL lysis buffer (PBS, 0.25 M NaCl, 1% Triton X-100). Total and free cholesterol were determined using the colorimetric enzymatic Amplex Red Cholesterol Assay Kit (Invitrogen). Triglycerides were quantified by Triglyceride Assay Kit (BioVision). For normalisation protein content was determined with Pierce 660 nm Protein Assay Reagent (Thermo Scientific).

THP1-derived foam cells [2] = assay: cholesterol and triglyceride content in foam cells; format: cell-based, human; conditions: 10 µM, 48 h, vs. DMSO
Protocol: as §1, §2

THP-1 macrophages [3] = assay: gene expression of LXRα target genes (qPCR) in THP-1 macrophages; format: cell-based, human; conditions: for expression of LXRα target genes (LXRα, SREBF1, ABCA1, APOE): 10 µM, 24 h
Protocol: as §1
(§3) Total RNA isolation and purification was performed by using the RNeasy Mini Kit (QIAGEN) and RNase-Free DNase Set (QIAGEN). cDNA was generated by reverse transcription using the High Capacity cDNA Reverse Transcription Kit (Life Technologies). Gene expression was quantified using the SYBR Green PCR Master Mix (Life Technologies) and ABI 7900HT Fast Real Time PCR System (Life Technologies). In each reaction 0.8 ng/µL cDNA and 0.2 µM primers were used. Gene expression was calculated with the ΔΔCt-method. ß-Actin was used for normalisation.

THP1-derived foam cells [4] = assay: gene expression of LXRα target genes (qPCR) in oxLDL-loaded foam cells; format: cell-based, human; conditions: 10 µM
Protocol: as §1, §3

THP1-derived foam cells [5] = assay: Western blot of LXRα and APOE in foam cells; format: cell-based, human; conditions: Western blot densitometry
Protocol: as §1
Whole cell extracts were harvested from three biological replicates and denaturized for SDS-PAGE (NuPAGE Novex 4–12% Bis-Tris Gels). Proteins were blotted on nitrocellulose Hybond ECL membrane and incubated with strictly validated published antibodies against LXRα (Abcam, ab 41902), APOE (Abcam ab1906), and as housekeeping protein control β-Actin (Santa Cruz Biotechnology, sc-47778, C4). […] This tool measures quantitatively the optical density and provides more accurate data than simple eye-observations. […]

[6] = biological target: T1, LXRα ligand binding domain (Homo sapiens, UniProt Q13133); assay: dual luciferase reporter gene assay, LXRα-LBD/GAL4-DBD in HEK-293 cells; format: cell-based
T1 construct: expressed in transfected cells; host or cells: HEK-293
T1 sequence (Q13133 164-447): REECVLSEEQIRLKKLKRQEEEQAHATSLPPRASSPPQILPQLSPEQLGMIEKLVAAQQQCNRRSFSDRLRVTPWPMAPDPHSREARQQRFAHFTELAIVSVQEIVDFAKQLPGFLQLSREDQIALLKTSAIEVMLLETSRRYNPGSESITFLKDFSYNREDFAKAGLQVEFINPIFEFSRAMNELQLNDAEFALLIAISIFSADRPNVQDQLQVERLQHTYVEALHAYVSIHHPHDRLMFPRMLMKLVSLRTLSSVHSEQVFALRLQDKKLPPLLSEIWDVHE
Protocol: (§4) The ligand binding domain (LBD) of LXRα (amino acids 164 to 447) or LXRβ (amino acids 154 to 461) was cloned into pBIND [Renilla/Amp] vector (Promega). Selection and amplification were performed in E. coli cells. Purification of the plasmids was performed with a plasmid purification kit (Qiagen). For transfection HEK-293 cells were plated in 96-well plates (TPP) at a density of 3.5×10^4 cells/well for 24 h. To investigate the ligand binding on LXRα ligand binding domain, 0.04 ng of renilla luciferase coding plasmide pGL4.75 (Promega), 0.04 ng of LXRα-LBD/GAL4-DBD plasmide and 80 ng of firefly luciferase coding plasmide pGL4.31 (Promega) were used in a total volume of 200 µL for each well. For LXRβ binding assay 40 ng of LXRβ-LBD/GAL4-DBD plasmide were applied in each transfection mix. Transfection was carried out for 4 h with Lipofectamine 2000 Transfection Reagent (Invitrogen) in Opti-MEM medium (Invitrogen). Ligand treatment was performed at different concentrations for 24 h. For lysis and detection dual-luciferase reporter gene assay system (Promega) and POLARstar Omega (BMG LABTECH) were used.

[7] = biological target: T2, LXRβ ligand binding domain (Homo sapiens, UniProt P55055); assay: dual luciferase reporter gene assay, LXRβ-LBD/GAL4-DBD in HEK-293 cells; format: cell-based
T2 construct: expressed in transfected cells; host or cells: HEK-293
T2 sequence (P55055 154-460 limits assumed): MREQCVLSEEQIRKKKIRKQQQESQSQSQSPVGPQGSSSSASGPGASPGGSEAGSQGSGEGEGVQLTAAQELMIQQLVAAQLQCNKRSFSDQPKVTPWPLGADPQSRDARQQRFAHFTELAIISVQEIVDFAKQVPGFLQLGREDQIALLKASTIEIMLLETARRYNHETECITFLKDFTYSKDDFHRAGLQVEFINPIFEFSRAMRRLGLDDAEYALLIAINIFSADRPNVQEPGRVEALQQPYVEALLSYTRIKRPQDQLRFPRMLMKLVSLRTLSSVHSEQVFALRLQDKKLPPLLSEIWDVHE
Protocol: as §4

[8] = +DMSO, transcriptional activation vs. T09

Efficacy ([6]; +200 nM T0901317 (additive)) [%]	EC50 ([6]; +200 nM T0901317 (additive), read-out: EC50) [nM]	EC50 ([6]; +DMSO, LXRα reporter gene, HEK-293, 24 h, read-out: EC50) [nM]	Transcriptional activation of LXRβ [7]	Compound	triglyceride level (THP-1 macrophages [1])	total and esterified cholesterol content (THP1-derived foam cells [2])	triglyceride levels (THP1-derived foam cells [2])	expression of LXRα target genes (LXRα, SREBF1, ABCA1, APOE) (THP-1 macrophages [3])	expression of LXRα target genes (LXRα, SREBF1, ABCA1, APOE) (THP1-derived foam cells [4])	protein expression levels of LXRα target genes (LXRα, APOE) (THP1-derived foam cells [5])	Efficacy [6, 8] [%]	ABCA1 expression with STX4 in the presence of T09 (THP-1 macrophages [3]; presence of 1 µM T09)	EC50 [6] [nM]
–	–	–	–	O=S(=O)(c1ccccc1)N(CC(F)(F)F)c1ccc(C(O)(C(F)(F)F)C(F)(F)F)cc1 [T0901317, reference compound]	stayed rather unchanged	significant reduction	increased triglyceride levels	increased expression	–	–	–	–	–
47	28	35	does not activate	C(=C\c1ccc(OCC2CO2)cc1)/c1ccccc1 (stereo not drawn) [STX4, 2-[[4-[(E)-styryl]phenoxy]methyl]oxirane]	stayed rather unchanged	significant reduction	not increased	not	potent target gene expression similar to T09	increased protein expression levels	6	additive effects	–
–	–	–	–	CC(C)CC[C@@H](O)[C@@H](C)[C@H]1CC[C@H]2[C@@H]3CC=C4C[C@@H](O)CC[C@]4(C)[C@H]3CC[C@]12C [22-R-Hydroxycholesterol, reference compound]	–	–	–	–	–	–	4	–	13300

Source: article PMC3581588, “Foam Cell Specific LXRα Ligand” (PLoS ONE, 2013)
